Patent US8168651B2, “Protein kinase modulators” (Cylene Pharmaceuticals, Inc., priority 2008, dated 2012)
Blank lines part the entries; values can stand above or below the compound they belong to.

Columns and labels:
Assay in all cases: Standardized radiometric kinase assays, percentage of activity at 0.5 μM;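 further: Read-out is ³³P-labelled substrate protein phosphorylated by each kinase, captured on filters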
[1] = target: each individual kinase of the panel (Homo sapiens, UniProt Q9NWZ3); conditions: for % Activity: IRAK4(h)
[2] = target: each individual kinase of the panel (Homo sapiens, UniProt Q02750); conditions: for % Activity: MEK1(h)
[3] = target: each individual kinase of the panel (Homo sapiens, UniProt Q99683); conditions: for % Activity: ASK1(h)
[4] = target: each individual kinase of the panel (Homo sapiens, UniProt P17948); conditions: for % Activity: Flt1(h)
[5] = target: each individual kinase of the panel (Homo sapiens, UniProt Q15349); conditions: for % Activity: Rsk3(h)
[6] = target: each individual kinase of the panel (Homo sapiens, UniProt P78368); conditions: for % Activity: CK1γ2(h)
[7] = target: each individual kinase of the panel (Homo sapiens, UniProt P08069); conditions: for % Activity: IGF-1R(h)
[8] = target: each individual kinase of the panel (Homo sapiens, UniProt O14757); conditions: for % Activity: CHK1(h)
[9] = target: each individual kinase of the panel (Homo sapiens, UniProt P16234, D842V); conditions: for % Activity: PDGFRα(D842V)(h)
each individual kinase of the panel (Homo sapiens, UniProt P16234, D842V), sequence (P16234 24-1089 D842V limits assumed): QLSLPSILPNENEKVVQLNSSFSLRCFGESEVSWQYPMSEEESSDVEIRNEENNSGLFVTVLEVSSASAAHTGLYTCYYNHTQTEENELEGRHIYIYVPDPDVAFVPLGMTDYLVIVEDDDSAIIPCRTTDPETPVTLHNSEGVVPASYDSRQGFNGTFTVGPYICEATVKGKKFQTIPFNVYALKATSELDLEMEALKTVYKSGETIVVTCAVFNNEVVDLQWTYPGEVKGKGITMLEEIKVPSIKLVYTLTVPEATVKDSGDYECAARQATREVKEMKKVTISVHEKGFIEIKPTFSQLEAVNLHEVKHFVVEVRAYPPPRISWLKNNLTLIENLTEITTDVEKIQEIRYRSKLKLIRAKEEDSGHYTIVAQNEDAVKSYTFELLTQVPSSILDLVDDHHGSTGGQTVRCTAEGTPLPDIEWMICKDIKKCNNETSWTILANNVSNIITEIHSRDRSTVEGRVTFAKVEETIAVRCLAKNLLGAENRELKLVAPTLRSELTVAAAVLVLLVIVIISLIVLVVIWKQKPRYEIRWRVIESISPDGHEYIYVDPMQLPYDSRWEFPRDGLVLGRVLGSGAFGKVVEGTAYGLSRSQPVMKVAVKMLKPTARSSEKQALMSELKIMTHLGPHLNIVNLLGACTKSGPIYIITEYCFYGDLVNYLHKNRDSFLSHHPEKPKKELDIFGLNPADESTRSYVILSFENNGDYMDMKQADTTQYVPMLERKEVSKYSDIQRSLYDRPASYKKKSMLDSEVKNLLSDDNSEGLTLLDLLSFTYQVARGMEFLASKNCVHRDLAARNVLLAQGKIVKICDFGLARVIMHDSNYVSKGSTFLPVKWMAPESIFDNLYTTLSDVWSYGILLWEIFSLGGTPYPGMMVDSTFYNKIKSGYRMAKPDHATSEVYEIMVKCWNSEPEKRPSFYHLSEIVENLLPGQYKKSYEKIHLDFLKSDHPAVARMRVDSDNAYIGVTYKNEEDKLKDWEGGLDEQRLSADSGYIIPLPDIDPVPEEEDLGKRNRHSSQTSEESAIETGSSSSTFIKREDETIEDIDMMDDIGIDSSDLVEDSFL

[10] = target: each individual kinase of the panel (Homo sapiens, UniProt P06239); conditions: for % Activity: Lck(h)
[11] = target: each individual kinase of the panel (Homo sapiens, UniProt P00533, L861Q); conditions: for % Activity: EGFR(L861Q)(h)
[12] = target: each individual kinase of the panel (Homo sapiens, UniProt P00533); conditions: for % Activity: EGFR(h)
[13] = tested on: each individual kinase of the panel; conditions: for % Activity: MAPK1(h)
[14] = target: each individual kinase of the panel (Homo sapiens, UniProt Q05397); conditions: for % Activity: FAK(h)
each individual kinase of the panel (Homo sapiens, UniProt Q05397), sequence (Q05397 2-1052 limits assumed): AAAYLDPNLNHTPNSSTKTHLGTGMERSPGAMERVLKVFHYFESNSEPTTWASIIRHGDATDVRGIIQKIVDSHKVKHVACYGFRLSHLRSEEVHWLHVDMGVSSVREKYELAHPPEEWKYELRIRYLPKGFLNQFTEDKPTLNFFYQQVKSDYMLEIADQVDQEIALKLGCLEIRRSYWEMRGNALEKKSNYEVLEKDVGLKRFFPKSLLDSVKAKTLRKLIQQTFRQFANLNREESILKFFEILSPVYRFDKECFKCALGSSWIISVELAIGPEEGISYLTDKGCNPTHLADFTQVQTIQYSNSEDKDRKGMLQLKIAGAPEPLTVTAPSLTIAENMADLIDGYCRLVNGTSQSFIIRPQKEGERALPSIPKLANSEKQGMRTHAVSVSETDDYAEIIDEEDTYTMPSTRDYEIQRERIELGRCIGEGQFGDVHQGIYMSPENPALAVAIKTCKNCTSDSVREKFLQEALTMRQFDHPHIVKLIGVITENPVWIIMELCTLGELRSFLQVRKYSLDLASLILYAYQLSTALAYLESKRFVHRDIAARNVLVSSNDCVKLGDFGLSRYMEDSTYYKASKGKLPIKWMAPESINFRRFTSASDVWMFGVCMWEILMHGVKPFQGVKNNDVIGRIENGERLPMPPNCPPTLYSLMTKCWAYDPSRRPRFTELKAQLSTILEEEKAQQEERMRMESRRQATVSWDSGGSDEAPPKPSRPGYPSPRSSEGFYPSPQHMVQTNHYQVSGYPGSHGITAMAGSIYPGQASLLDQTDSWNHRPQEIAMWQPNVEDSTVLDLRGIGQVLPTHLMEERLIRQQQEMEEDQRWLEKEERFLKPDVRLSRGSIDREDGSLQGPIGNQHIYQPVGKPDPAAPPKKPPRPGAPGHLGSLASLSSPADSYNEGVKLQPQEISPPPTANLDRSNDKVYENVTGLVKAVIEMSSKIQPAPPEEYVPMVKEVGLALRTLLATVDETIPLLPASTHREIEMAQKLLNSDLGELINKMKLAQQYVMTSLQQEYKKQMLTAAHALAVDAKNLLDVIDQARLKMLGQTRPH

[15] = target: each individual kinase of the panel (Homo sapiens, UniProt P08631); conditions: for % Activity: Hck(h)
[16] = target: each individual kinase of the panel (Homo sapiens, UniProt P53350); conditions: Plk1(h)
[17] = target: each individual kinase of the panel (Homo sapiens, UniProt P06213); conditions: for % Activity: IR(h)
each individual kinase of the panel (Homo sapiens, UniProt P06213), sequence (P06213 28-758 limits assumed): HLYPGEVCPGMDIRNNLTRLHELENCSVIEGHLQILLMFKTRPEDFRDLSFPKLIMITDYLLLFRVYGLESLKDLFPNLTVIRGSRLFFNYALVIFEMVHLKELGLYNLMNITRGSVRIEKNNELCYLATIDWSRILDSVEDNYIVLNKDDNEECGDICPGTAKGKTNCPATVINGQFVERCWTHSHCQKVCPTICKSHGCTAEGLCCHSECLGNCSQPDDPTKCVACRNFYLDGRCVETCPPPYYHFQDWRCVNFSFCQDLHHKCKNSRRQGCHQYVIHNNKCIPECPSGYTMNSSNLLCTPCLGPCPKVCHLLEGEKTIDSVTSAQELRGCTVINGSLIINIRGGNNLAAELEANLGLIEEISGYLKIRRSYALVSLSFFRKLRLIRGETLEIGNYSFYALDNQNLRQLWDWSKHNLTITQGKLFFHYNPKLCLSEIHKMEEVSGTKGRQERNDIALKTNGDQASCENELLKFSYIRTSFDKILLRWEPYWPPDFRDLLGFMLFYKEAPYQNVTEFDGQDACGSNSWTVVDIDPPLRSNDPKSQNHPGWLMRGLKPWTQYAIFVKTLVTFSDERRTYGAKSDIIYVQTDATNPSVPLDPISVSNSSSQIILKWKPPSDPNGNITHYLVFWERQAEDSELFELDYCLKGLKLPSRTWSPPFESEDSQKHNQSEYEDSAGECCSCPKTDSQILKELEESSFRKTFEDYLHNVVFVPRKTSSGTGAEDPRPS
each individual kinase of the panel (Homo sapiens, UniProt P06213), sequence (P06213 763-1382 limits assumed): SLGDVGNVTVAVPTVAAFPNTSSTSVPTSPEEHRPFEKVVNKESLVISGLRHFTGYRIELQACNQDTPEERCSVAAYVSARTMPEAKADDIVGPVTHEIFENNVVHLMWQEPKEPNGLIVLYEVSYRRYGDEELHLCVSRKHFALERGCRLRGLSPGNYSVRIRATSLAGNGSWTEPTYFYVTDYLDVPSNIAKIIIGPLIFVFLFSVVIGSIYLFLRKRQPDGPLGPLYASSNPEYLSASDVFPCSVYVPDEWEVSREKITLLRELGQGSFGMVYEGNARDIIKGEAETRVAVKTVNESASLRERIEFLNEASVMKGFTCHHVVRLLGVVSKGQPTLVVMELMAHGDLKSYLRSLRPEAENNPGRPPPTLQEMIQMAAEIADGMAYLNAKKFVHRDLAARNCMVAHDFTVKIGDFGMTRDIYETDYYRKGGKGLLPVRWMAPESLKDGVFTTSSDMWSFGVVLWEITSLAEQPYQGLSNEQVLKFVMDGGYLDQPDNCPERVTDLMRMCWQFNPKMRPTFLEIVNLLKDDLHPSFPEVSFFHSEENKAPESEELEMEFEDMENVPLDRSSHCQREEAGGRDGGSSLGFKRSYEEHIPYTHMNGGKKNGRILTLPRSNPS

[18] = target: each individual kinase of the panel (Homo sapiens, UniProt P54760); conditions: for % Activity: EphB4(h)
[19] = target: each individual kinase of the panel (Homo sapiens, UniProt P07947); conditions: for % Activity: Yes(h)
[20] = target: each individual kinase of the panel (Homo sapiens, UniProt P10721); conditions: for % Activity: cKit(h)
each individual kinase of the panel (Homo sapiens, UniProt P10721), sequence (P10721 26-976 limits assumed): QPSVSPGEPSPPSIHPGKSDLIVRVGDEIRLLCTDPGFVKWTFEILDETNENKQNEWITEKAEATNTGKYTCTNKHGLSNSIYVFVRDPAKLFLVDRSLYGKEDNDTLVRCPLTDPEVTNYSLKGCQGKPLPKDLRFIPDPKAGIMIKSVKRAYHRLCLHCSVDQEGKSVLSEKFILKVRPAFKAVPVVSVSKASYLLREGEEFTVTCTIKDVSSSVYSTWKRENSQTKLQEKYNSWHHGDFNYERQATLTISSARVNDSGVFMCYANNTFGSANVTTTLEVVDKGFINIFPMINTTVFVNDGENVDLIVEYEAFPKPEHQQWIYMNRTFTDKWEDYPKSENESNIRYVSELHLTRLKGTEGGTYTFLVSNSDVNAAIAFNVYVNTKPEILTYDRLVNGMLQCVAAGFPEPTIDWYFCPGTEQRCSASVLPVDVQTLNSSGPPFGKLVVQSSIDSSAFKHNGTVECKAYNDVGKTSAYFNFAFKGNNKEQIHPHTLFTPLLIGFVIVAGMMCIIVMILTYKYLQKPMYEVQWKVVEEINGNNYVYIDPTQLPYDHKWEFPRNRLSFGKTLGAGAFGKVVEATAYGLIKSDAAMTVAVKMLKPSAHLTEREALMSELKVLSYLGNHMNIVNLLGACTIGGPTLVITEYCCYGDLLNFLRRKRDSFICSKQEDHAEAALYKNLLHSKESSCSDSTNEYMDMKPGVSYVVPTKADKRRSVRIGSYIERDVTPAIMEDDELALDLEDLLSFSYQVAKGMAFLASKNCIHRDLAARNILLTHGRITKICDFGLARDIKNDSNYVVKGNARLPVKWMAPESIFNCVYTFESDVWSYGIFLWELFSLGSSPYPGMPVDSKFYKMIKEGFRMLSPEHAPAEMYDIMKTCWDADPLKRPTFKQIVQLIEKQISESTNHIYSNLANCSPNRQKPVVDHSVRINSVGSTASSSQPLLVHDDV

[21] = target: each individual kinase of the panel (Homo sapiens, UniProt P17252); conditions: for % Activity: PKCα(h)
[22] = target: each individual kinase of the panel (Homo sapiens, UniProt P09619); conditions: for % Activity: PDGFRβ(h)
[23] = target: each individual kinase of the panel (Homo sapiens, UniProt P49137)
[24] = target: each individual kinase of the panel (Homo sapiens, UniProt P49840)
[25] = target: each individual kinase of the panel (Homo sapiens, UniProt Q08881)
[26] = target: each individual kinase of the panel (Mus musculus, UniProt P16277)
[27] = target: each individual kinase of the panel (Homo sapiens, UniProt P51813)
[28] = target: each individual kinase of the panel (Homo sapiens, UniProt Q9BYP7)
[29] = target: each individual kinase of the panel (Homo sapiens, UniProt Q13882)

SMILES: Clc1ccccc1Nc1nc2c(-c3nnc[nH]3)cccc2c2cnccc12 [A]
% Activity [1]: 12% | % Activity [2]: 72% | % Activity [3]: 92% | % Activity [4]: 62% | % Activity [5]: 7% | % Activity [6]: 17% | % Activity [7]: 101% | % Activity [8]: 108% | % Activity [9]: 17% | % Activity [10]: 21% | % Activity [11]: 60% | % Activity [12]: 111% | % Activity [13]: 77% | % Activity [14]: 30% | % Activity [15]: 61% | % Activity [16]: 96% | % Activity [17]: 112% | % Activity [18]: 87% | % Activity [19]: 26% | % Activity [20]: 89% | % Activity [21]: 99% | % Activity [22]: 94%

SMILES: C#Cc1cccc(Nc2nc3cc(C(=O)O)ccc3c3cncnc23)c1 [drawing 1135]
IRAK4 percentage of activity [1]: −19% | MEK1 percentage of activity [2]: −36% | ASK percentage of activity [3]: −16% | FLT1 percentage of activity [4]: 5% | CK1 gamma 2 percentage of activity [6]: −7% | IGF1R percentage of activity [7]: 27% | CHK1 percentage of activity [8]: 1% | PDGFRA (D842V) percentage of activity [9]: −9% | GSK3A percentage of activity [24]: 51% | EGFR percentage of activity [12]: −23% | MLCK percentage of activity [13]: −3% | PDGFRB (V561D) percentage of activity [13]: −4% | PRKCB2 percentage of activity [13]: 1% | ITK;Itk(h) percentage of activity [25]: 0% | FAK percentage of activity [14]: 3% | HCK percentage of activity [15]: −11% | INSR percentage of activity [17]: −5% | Blk(m) percentage of activity [26]: 0% | EPHB4 percentage of activity [18]: −44% | BMX percentage of activity [27]: −18% | WNK3 percentage of activity [28]: −17% | YES percentage of activity [19]: −9% | cKit(h) percentage of activity [20]: −14% | PRKCA percentage of activity [21]: 1% | BRK percentage of activity [29]: −10% | MAPKAPK2 percentage of activity [23]: −7% | PDGFRB percentage of activity [22]: −10%

SMILES: C#Cc1cccc(Nc2nc3cc(C(=O)O)ccc3c3cnccc23)c1 [drawing 1137]
IRAK4 percentage of activity [1]: 4% | MEK1 percentage of activity [2]: 4% | ASK percentage of activity [3]: −1% | FLT1 percentage of activity [4]: 75% | RPS6KA2 percentage of activity [5]: 59% | CK1 gamma 2 percentage of activity [6]: 35% | IGF1R percentage of activity [7]: −9% | CHK1 percentage of activity [8]: 13% | PDGFRA (D842V) percentage of activity [9]: 78% | LCK percentage of activity [10]: 33% | EGFR(L861Q) percentage of activity [11]: 59% | EGFR percentage of activity [12]: 24% | FAK percentage of activity [14]: −2% | HCK percentage of activity [15]: 26% | INSR percentage of activity [17]: −7% | Blk(m) percentage of activity [26]: 33% | EPHB4 percentage of activity [18]: −8% | BMX percentage of activity [27]: 8% | YES percentage of activity [19]: 34% | cKit(h) percentage of activity [20]: 15% | PRKCA percentage of activity [21]: 9% | BRK percentage of activity [29]: 18% | MAPKAPK2 percentage of activity [23]: −12% | PDGFRB percentage of activity [22]: −2%

The remaining lines, values ahead:

% Activity [1]: 81% | % Activity [2]: 88% | % Activity [3]: 93% | % Activity [4]: 66% | % Activity [5]: 40% | % Activity [6]: 63% | % Activity [7]: 90% | % Activity [8]: 91% | % Activity [9]: 15% | % Activity [10]: 24% | % Activity [11]: 54% | % Activity [12]: 101% | % Activity [13]: 86% | % Activity [14]: 106% | % Activity [15]: 62% | % Activity [16]: 76% | % Activity [17]: 95% | % Activity [18]: 105% | % Activity [19]: 44% | % Activity [20]: 88% | % Activity [21]: 97% | % Activity ([23]; MAPKAP-K2(h)): 104% | % Activity [22]: 94%
SMILES: NC(=O)c1cccc2c1nc(Nc1cccc(Cl)c1)c1ccncc12 [B]

IRAK4 percentage of activity [1]: 12% | MEK1 percentage of activity [2]: 8% | ASK percentage of activity [3]: 2% | FLT1 percentage of activity [4]: 19% | CK1 gamma 2 percentage of activity [6]: −5% | IGF1R percentage of activity [7]: −23% | CHK1 percentage of activity [8]: −1% | PDGFRA (D842V) percentage of activity [9]: 64% | LCK percentage of activity [10]: 79% | EGFR(L861Q) percentage of activity [11]: 70% | EGFR percentage of activity [12]: 15% | FAK percentage of activity [14]: 4% | HCK percentage of activity [15]: 28% | INSR percentage of activity [17]: 0% | EPHB4 percentage of activity [18]: −16% | YES percentage of activity [19]: 30% | cKit(h) percentage of activity [20]: −10% | PRKCA percentage of activity [21]: 1% | MAPKAPK2 percentage of activity [23]: −2% | PDGFRB percentage of activity [22]: 3%
SMILES: NC(=O)c1ccc2c(c1)nc(Nc1cccc(Cl)c1)c1ccncc12 [drawing 1138]
